This note sets out measurements from US7105501B2, “Compositions with vascular damaging activity” (Angiogene Pharmaceuticals Ltd., priority 2000, dated 2006).

For one experiment, the system named is SaS tumours. Briefly: Induction of tumour necrosis, SaS tumours. The class given is in vivo, Mice. Conditions: tumours excised after 24 h, mean score 1-10, control 1.0. The method, then:
(§1) Induction of Tumour Necrosis
(§2) Mice bearing either CaNT or SaS tumours were treated with the test compound and tumours excised after 24 h, fixed in formalin, embedded in paraffin, sectioned and stained with haematoxylin and eosin. Sections were scored based on the estimated area of necrosis as follows:
(§3) Control tumours had mean scores of 2.0 (CaNT) and 1.0 (SaS). The salts of the invention were more efficacious than their dihydrogen phosphate parent compounds.

In another experiment the test system is CaNT tumour vasculature. The experiment is described as follows: Activity against tumour vasculature measured by fluorescent dye (Hoechst 33342 functional vascular volume). It is filed as in vivo. Conditions: CaNT tumour-bearing mice, 24 hours after drug treatment. The method, then: Activity Against Tumour Vasculature Measured by Fluorescent Dye.
Tumour functional vascular volume in CaNT tumour-bearing mice was measured using the fluorescent dye Hoechst 33342 according to the method of Smith et al (Brit J Cancer 57, 247-253, 1988). At least three animals were used in control and treated groups. The fluorescent dye was dissolved in saline at 6.25 mg/ml and injected intravenously at 10 mg/kg 24 hours after drug treatment. One minute later, animals were killed and tumours excised and frozen; 10 μm sections were cut at 3 different levels and observed under UV illumination using an Olympus microscope equipped with epifluorescence. Blood vessels were identified by their fluorescent outlines and vascular volume was quantified using a point scoring system based on that described by Chalkley, (J Natl Cancer Inst, 4, 47-53, 1943). All estimates were based on counting a minimum of 100 fields from sections cut at the 3 different levels. The salts of the invention were more efficacious than their dihydrogen phosphate parent compounds.

For a further experiment, the system named is CaNT tumours. The experiment is described as follows: Induction of tumour necrosis, CaNT tumours. The class given is in vivo, Mice. Conditions: tumours excised after 24 h, mean score 1-10, control 2.0. As to the method:
as §1, §2, §3

Take `COc1ccc(/C=C\c2cc(OC)c(OC)c(OC)c2)cc1OP(=O)(O)O` [Combretastatin A4 phosphate, combretastatin A4 phosphate]: the Necrosis score in the experiment with SaS tumours (dose 500 mg/kg) amounted to 1.4; with CaNT tumours (dose 100 mg/kg) it was 5.0. Besides, in the experiment with CaNT tumour vasculature (dose 100 mg/kg), the “% Reduction in Vascular Volume” value came out at 26%.

Consider `COC(=O)C(N)CCCNC(N)=N[N+](=O)[O-].COc1cc(/C=C\c2ccc(C)c(OP(=O)(O)O)c2)cc(OC)c1OC` [Example 5, (Z)-2-methyl-5-[2-(3,4,5-trimethoxyphenyl)ethenyl]phenyl (1-methoxycarbonyl-4-N′-nitroguanidinobutylammonium) hydrogen phosphate], for which, in the experiment on CaNT tumour vasculature (dose 50 mg/kg), the “% Reduction in Vascular Volume” value was 86%. The compound also gave a Necrosis score with CaNT tumours (dose 50 mg/kg) of 10.0.

With `COc1cc(/C=C\c2ccc(C)c(OP(=O)(O)O)c2)cc(OC)c1OC.NC(=N[N+](=O)[O-])NCCCC(N)C(=O)O` [Example 2, (Z)-2-methyl-5-[2-(3,4,5-trimethoxyphenyl)ethenyl]phenyl (1-carboxy-4-N′-nitroguanidinobutylammonium) hydrogen phosphate], the Necrosis score in the experiment on SaS tumours (dose 100 mg/kg) was 7.7; in the experiment on CaNT tumours (dose 50 mg/kg), 8.7. In addition, the “% Reduction in Vascular Volume” value in the experiment with CaNT tumour vasculature (dose 50 mg/kg) is 42%.

Take `COc1cc(/C=C\c2ccc(C)c(OP(=O)(O)O)c2)cc(OC)c1OC` [(Z)-2-methyl-5-[2-(3,4-,5-trimethoxyphenyl)ethenyl]phenyl dihydrogen phosphate]: in the experiment on CaNT tumour vasculature (dose 100 mg/kg), the “% Reduction in Vascular Volume” value was determined as 28%. The compound further had a Necrosis score in the experiment on CaNT tumours (dose 100 mg/kg) of 5.3.
